Legend:
Experiment in all cases: Greenhouse postemergence herbicidal effect
Type in all cases: in vivo
[1] = system: Canadian thistle (CIRAR, Cirsium arvense)
How it was run: (§1)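 Herbicide mixtures, dosed as g ae/ha for the pyridine carboxylate and g ai/ha for the ALS inhibitor, are applied postemergence with cloquintocet-mexyl safener. Control plants receive solvent blank. Percent injury is assessed by eye 20–22 d later.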

[2] = system: Russian thistle (SASKR, Salsola kali); settings: Florasulam 5 g/ha
How it was run: as §1

[3] = system: chickweed (STEME, Stellaria media); settings: Florasulam 5 g/ha
How it was run: as §1

[4] = system: pigweed (AMARE, Amaranthus retroflexus); settings: Florasulam 3.75 g/ha
How it was run: as §1

[5] = system: pineapple weed (MATMT, Matricaria discoidea); settings: Florasulam 5 g/ha
How it was run: as §1

[6] = system: wild buckwheat (POLCO, Polygonum convolvulus)
How it was run: as §1

[7] = system: wild chamomile (MATCH, Matricaria chamomilla)
How it was run: as §1

[8] = system: wild pansy (VIOTR, Viola tricolor); settings: Florasulam 5 g/ha
How it was run: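 Injury was rated visually after 20-22 d on a 0 (none) to 100% (complete kill) scale relative to solvent-sprayed controls, with sub-irrigation to avoid wash-off. Rates were given in g ae/ha or g ai/ha depending on component.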

[9] = system: winter rape (BRSNW, Brassica napus)
How it was run: as §1

[10] = system: common lambsquarters (CHEAL, Chenopodium album L.); settings: Florasulam 3.75 g/ha
[11] = system: kochia (KCHSC, Kochia scoparia)
How it was run: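 Plants at the second or third true leaf stage received overhead spray at 187 L/ha, with the pyridine carboxylate (plus cloquintocet-mexyl safener) alone or with ALS herbicides in 1.25% v/v crop oil. Rates are in g ae/ha or g ai/ha. Visual injury versus solvent-blank controls was scored 0–100% after 20-22 d in the greenhouse.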

COc1ncc(F)c2nc(S(=O)(=O)Nc3c(F)cccc3F)nn12 [Florasulam, florasulam]
% visual injury Obs ([1]; Florasulam 3.75 g/ha): 68%
% visual injury ([1]; Florasulam 5 g/ha): 75%
% visual injury [2]: 85%
% visual injury [3]: 100%
% visual injury Obs [4]: 100%
% visual injury [5]: 95%
Obs % visual injury ([5]; MATMT): 65%
% visual injury Obs ([6]; Florasulam 3.75 g/ha): 90%
% visual injury ([6]; Florasulam 5 g/ha): 87%
% visual injury Obs ([7]; Florasulam 3.75 g/ha): 85%
% visual injury ([7]; Florasulam 5 g/ha): 85%
Obs % visual injury ([7]; MATCH, Florasulam 5 g/ha): 20%
% visual injury [8]: 10%
Obs % visual injury ([9]; BRSNW, Florasulam 5 g/ha): 35%
% visual injury Obs ([9]; Florasulam 3.75 g/ha): 95%
% visual injury ([9]; Florasulam 5 g/ha): 97%
% visual injury Obs [10]: 0%
% visual injury Obs ([11]; Florasulam 3.75 g/ha): 70%
% visual injury ([11]; Florasulam 5 g/ha): 95%
